Measured values taken from PMC11003488 (Journal of Enzyme Inhibition and Medicinal Chemistry, 2023).

Legend:
[1] = test system: CCRF-CEM; assay: NCI-60 SRB growth inhibition, one-dose and five-dose; format: cell-based; details: Homo sapiens
[2] = test system: K-562; assay: as above; format: cell-based; details: Homo sapiens
[3] = test system: EKVX; assay: as above; format: cell-based; details: Homo sapiens
[4] = test system: HOP-62; assay: as above; format: cell-based; details: Homo sapiens
[5] = test system: HOP-92; assay: as above; format: cell-based; details: Homo sapiens
[6] = test system: NCI-H226; assay: as above; format: cell-based; details: Homo sapiens
[7] = test system: NCI-H23; assay: as above; format: cell-based; details: Homo sapiens
[8] = test system: NCI-H322M; assay: as above; format: cell-based; details: Homo sapiens
[9] = test system: NCI-H460; assay: as above; format: cell-based; details: Homo sapiens
[10] = test system: NCI-H522; assay: as above; format: cell-based; details: Homo sapiens
[11] = test system: COLO 205; assay: as above; format: cell-based; details: Homo sapiens
[12] = test system: HCC-2998; assay: as above; format: cell-based; details: Homo sapiens
[13] = test system: HCT-116; assay: as above; format: cell-based; details: Homo sapiens
[14] = test system: HCT-15; assay: as above; format: cell-based; details: Homo sapiens
[15] = test system: HT29; assay: as above; format: cell-based; details: Homo sapiens
[16] = test system: KM12; assay: as above; format: cell-based; details: Homo sapiens
[17] = test system: SF-268; assay: as above; format: cell-based; details: Homo sapiens
[18] = test system: SNB-75; assay: as above; format: cell-based; details: Homo sapiens
[19] = test system: U251; assay: as above; format: cell-based; details: Homo sapiens
[20] = test system: LOX IMVI; assay: as above; format: cell-based; details: Homo sapiens
[21] = test system: MALME-3M; assay: as above; format: cell-based; details: Homo sapiens
[22] = test system: M14; assay: as above; format: cell-based; details: Homo sapiens
[23] = test system: SK-MEL-2; assay: as above; format: cell-based; details: Homo sapiens
[24] = test system: SK-MEL-28; assay: as above; format: cell-based; details: Homo sapiens
[25] = test system: SK-MEL-5; assay: as above; format: cell-based; details: Homo sapiens
[26] = test system: UACC-62; assay: as above; format: cell-based; details: Homo sapiens
[27] = test system: IGROV1; assay: as above; format: cell-based; details: Homo sapiens
[28] = test system: OVCAR-3; assay: as above; format: cell-based; details: Homo sapiens
[29] = test system: OVCAR-4; assay: as above; format: cell-based; details: Homo sapiens
[30] = test system: OVCAR-5; assay: as above; format: cell-based; details: Homo sapiens
[31] = test system: NCI/ADR-RES; assay: as above; format: cell-based; details: Homo sapiens
[32] = test system: SK-OV-3; assay: as above; format: cell-based; details: Homo sapiens
[33] = test system: 786-0; assay: as above; format: cell-based; details: Homo sapiens
[34] = test system: A498; assay: as above; format: cell-based; details: Homo sapiens
[35] = test system: ACHN; assay: as above; format: cell-based; details: Homo sapiens
[36] = test system: TK-10; assay: as above; format: cell-based; details: Homo sapiens
[37] = test system: PC-3; assay: as above; format: cell-based; details: Homo sapiens
[38] = test system: MCF7; assay: as above; format: cell-based; details: Homo sapiens
[39] = test system: HS 578 T; assay: as above; format: cell-based; details: Homo sapiens
[40] = test system: BT-549; assay: as above; format: cell-based; details: Homo sapiens
[41] = test system: T-47D; assay: as above; format: cell-based; details: Homo sapiens, T47D
[42] = test system: NCI 60-cell line panel (full panel); assay: NCI-60 SRB growth inhibition, full panel mean / MG-MID; format: cell-based, human
[43] = read-out: percent growth inhibition

With Cc1ccc(CNc2cccc(C(=O)/C=C/c3cccnc3)c2)cc1 [Compound 5a, (E)-1–(3-((4-methylbenzyl)amino)phenyl)-3-(pyridin-3-yl)prop-2-en-1-one] the GI50 [1] was 2.58 µM, the inhibition at 10 µM [1, 43] was 53.1% and the GI50 ([2]; K562) was 3.09 µM. For the same molecule, the inhibition at 10 µM ([2]; K562, read-out: percent growth inhibition) was 93.6%, the GI50 [3] was 12.8 µM and the inhibition at 10 µM [3, 43] was 52.3%. For the same molecule, the GI50 ([4]; HOP-62) was 15.6 µM, the inhibition at 10 µM ([4]; HOP-62, read-out: percent growth inhibition) was 15.1% and the GI50 ([5]; HOP-92) was 10.9 µM. For the same molecule, the inhibition at 10 µM ([5]; HOP-92, read-out: percent growth inhibition) was 41.8%, the GI50 ([6]; NCI-H226) was 11.9 µM and the inhibition at 10 µM ([6]; NCI-H226, read-out: percent growth inhibition) was 37.9%. For the same molecule, the GI50 ([7]; NCI-H23) was 12.2 µM, the inhibition at 10 µM ([7]; NCI-H23, read-out: percent growth inhibition) was 47.9% and the GI50 [8] was 15.7 µM. The inhibition at 10 µM [8, 43] was 19.6%, the GI50 ([9]; NCI-H460) was 12.9 µM and the inhibition at 10 µM ([9]; NCI-H460, read-out: percent growth inhibition) was 42%. The GI50 ([10]; NCI-H522) was 13.8 µM, the inhibition at 10 µM ([10]; NCI-H522, read-out: percent growth inhibition) was 134% and the GI50 ([11]; COLO 205) was 17.1 µM. The inhibition at 10 µM ([11]; COLO 205, read-out: percent growth inhibition) was 36.9%, the GI50 ([12]; HCC 2998) was 14.1 µM and the inhibition at 10 µM ([12]; HCC 2998, read-out: percent growth inhibition) was 52.8%. It also gave a GI50 ([13]; HCT-116, HCT-116, five-dose screening) of 2.07 µM, an inhibition at 10 µM ([13]; HCT-116, read-out: percent growth inhibition) of 189% and a GI50 ([14]; HCT-15) of 4.15 µM. The inhibition at 10 µM ([14]; HCT-15, read-out: percent growth inhibition) was 156%, the GI50 ([15]; HT-29) was 14.1 µM and the inhibition at 10 µM ([15]; HT-29, read-out: percent growth inhibition) was 159%. The GI50 ([16]; KM12) was 8.36 µM, the inhibition at 10 µM ([16]; KM12, read-out: percent growth inhibition) was 155% and the GI50 ([17]; SF-268) was 12.8 µM. It also gave an inhibition at 10 µM ([17]; SF-268, read-out: percent growth inhibition) of 38.2%, a GI50 ([18]; SNB-75) of 13.1 µM and an inhibition at 10 µM ([18]; SNB-75, read-out: percent growth inhibition) of 46.6%. The GI50 ([19]; U-251) was 9.87 µM, the inhibition at 10 µM ([19]; U-251, read-out: percent growth inhibition) was 193% and the GI50 [20] was 1.88 µM. For the same molecule, the inhibition at 10 µM [20, 43] was 195%, the GI50 [21] was 13.6 µM and the inhibition at 10 µM [21, 43] was 127%. For the same molecule, the GI50 ([22]; M14) was 13.1 µM, the inhibition at 10 µM ([22]; M14, read-out: percent growth inhibition) was 92.7% and the GI50 ([23]; SK-MEL-2) was 14.3 µM. The inhibition at 10 µM ([23]; SK-MEL-2, read-out: percent growth inhibition) was 35.9%, the GI50 ([24]; SK-MEL-28) was 14.7 µM and the inhibition at 10 µM ([24]; SK-MEL-28, read-out: percent growth inhibition) was 71.6%. For the same molecule, the GI50 ([25]; SK-MEL-5) was 8.96 µM, the inhibition at 10 µM ([25]; SK-MEL-5, read-out: percent growth inhibition) was 74.9% and the GI50 ([26]; UACC-62) was 11.1 µM. The inhibition at 10 µM ([26]; UACC-62, read-out: percent growth inhibition) was 58.4%, the GI50 ([27]; IGROV-1) was 13.6 µM and the inhibition at 10 µM ([27]; IGROV-1, read-out: percent growth inhibition) was 44.5%. It also gave a GI50 ([28]; OVCAR-3) of 7.19 µM, an inhibition at 10 µM ([28]; OVCAR-3, read-out: percent growth inhibition) of 84.8% and a GI50 ([29]; OVCAR-4) of 6.81 µM. The inhibition at 10 µM ([29]; OVCAR-4, read-out: percent growth inhibition) was 63.8%, the GI50 ([30]; OVCAR-5) was 15.6 µM and the inhibition at 10 µM ([30]; OVCAR-5, read-out: percent growth inhibition) was 52.2%. For the same molecule, the GI50 [31] was 7.54 µM, the GI50 ([32]; SK-OV-3) was 16.1 µM and the inhibition at 10 µM ([32]; SK-OV-3, read-out: percent growth inhibition) was 60.2%. The GI50 ([33]; 786-0) was 15.5 µM, the inhibition at 10 µM ([33]; 786-0, read-out: percent growth inhibition) was 126% and the GI50 ([34]; A498) was 14.4 µM. The inhibition at 10 µM ([34]; A498, read-out: percent growth inhibition) was 14.1%, the GI50 [35] was 14 µM and the inhibition at 10 µM [35, 43] was 130%. It also gave a GI50 ([36]; TK-10) of 14.4 µM, an inhibition at 10 µM ([36]; TK-10, read-out: percent growth inhibition) of 18.9% and a GI50 ([37]; PC-3) of 14.2 µM. The inhibition at 10 µM ([37]; PC-3, read-out: percent growth inhibition) was 84.8%, the GI50 ([38]; MCF7) was 2.79 µM and the inhibition at 10 µM ([38]; MCF7, read-out: percent growth inhibition) was 148%. The GI50 [39] was 14.6 µM, the inhibition at 10 µM [39, 43] was 69.2% and the GI50 ([40]; BT-549) was 10.4 µM. It also gave an inhibition at 10 µM ([40]; BT-549, read-out: percent growth inhibition) of 111%, a GI50 [41] of 9.84 µM and an inhibition at 10 µM [41, 43] of 105%. The GI50 ([42]; Homo sapiens, 60 cell, read-out: Full panel GI50 mean) was 10.8 µM and the “Full panel Mean GI %” value ([42]; mean over NCI-60 panel, single dose 10 µM) was 82.76%.
